What was measured:
[1] = (§1) Kinetic data for inhibition of Beta-1,4-GalT by free N-acetyl-glucosamine; parameters: species or system Homo sapiens
[2] = (§2) Kinetic data for inhibition of Beta-1,4-GalT by polymer-supported Nacetylglucosamine.; settings: human
[3] = as §2; parameters: species or system Homo sapiens
[4] = organism: Homo sapiens; experiment: as §1
[5] = as §1; settings: human

- Ki [1]: 14.3 mM
- Km [2]: 10.5 mM
- Vmax [2]: 4.73 U mg-1
- Ki [3]: 0.54 mM
- Km [4]: 34.6 mM
- Vmax [5]: 2.62 U mg-1
SMILES: CC(=O)N[C@@H]1[C@@H](O)[C@H](O)[C@@H](CO)O[C@H]1O [N-ACETYLGLUCOSAMINE]

From ChEMBL document CHEMBL1133961, “Chemo-enzymatic synthesis of the Galili epitope Gal(alpha)(1-->3)Galbeta(1-->4)GlcNAc on a homogeneously soluble PEG polymer by a multi-enzyme system” (Bioorg Med Chem Lett, 2001)
